Measured values taken from patent publication US11578369B2, “Method for the in vitro prognosis of individuals having multiple myeloma and method for the treatment thereof” (CENTRE NATIONAL DE LA RECHERCHE SCIENTIFIQUE, priority 2016, dated 2023).
Where “and” joins values, the source holds several entries; their conditions need not be identical. Identical values can stand only once.

Key:
Assay type in all cases: cell-based, human
[1] = system: HMCLs; experiment: Sublethal dose (IC10) of Decitabine on HMCLs
Method: To assess the potential synergistic effect of the inhibition of these two repressive mechanisms, we tested the combination of a sublethal dose of Decitabine (100 nM, IC10) with EPZ-6438 (1 μM) on two EPZ-6438-resistant HMCLs. […] Therefore, DNA hypomethylation can collaborate with EZH2 inhibition to block MM cell growth.

[2] = system: HMCLs; experiment: Sensitivity of HMCLs with high or low EZ score to EPZ-6438, cell growth assay; settings: 1 μM EPZ-6438, 8 days; P=0.04
Method: FIG. 3A: EZ score predicts for sensitivity of HMCLs and primary MMCs to EZH2 inhibitor. […] Human myeloma cell lines were cultured for 8 days in 96-well flat-bottom microtiter plates in RPMI 1640 medium, 10% fetal calf serum, 2 ng/ml IL-6 culture medium (control) and 1 μM EPZ-6438. Data are mean values±standard deviation (s.d.) of five experiments determined.
HMCLs were cultured for 15 days in RPMI 1640 medium, 10% FCS, and 2 ng/ml IL-6 (control medium) in the presence of EPZ-6438 ([…]®). Cell concentration and viability were assessed using trypan blue dye exclusion test. The number of metabolic-active was also determined using intracellular ATP quantitation. […] Cell growth was evaluated by quantifying intracellular ATP amount with a Cell Titer Glo Luminescent Assay (PROMEGA®, Madison, Wis.) using a Centro LB 960 luminometer (BERTHOLD TECHNOLOGIES®, Bad Wildbad, Germany).
It was then sought to validate whether the EZ-score could predict for the sensitivity of 10 HMCLs to EPZ-6438. Starting from the large cohort of 40 HMCLs, the response of 5 HMCLs with a high EZ score and 5 HMCLs with a low EZ score to EPZ-6438 EZH2 inhibitor was analyzed.

[3] = system: IKZF1; experiment: IKZF1 protein level in HMCLs by flow cytometry; settings: 1 μM EPZ-6438 4 days, then 2 days with or without 2 μM lenalidomide
Method: (§1) The expression of IKZF1, c-Myc and IRF4 in HMCLs was evaluated by flow cytometry using PE-conjugated anti-IKZFL anti-MYC and anti-IRF4 mAb and isotype matched PE-conjugated mAb. Data are mean values±standard deviation (SD) of three experiments.
(§2) The expression of IKZF1, c-Myc and IRF4 in HMCLs was evaluated by flow cytometry using PE-conjugated anti-IKZF1, anti-MYC and anti-IRF4 mAb and isotype matched PE-conjugated mAb. IKZF1 expression was assessed by immunofluorescence using an anti-IKZF1 primary antibody and an AF555-conjugated secondary antibody and further plotted onto a graph.
(§3) Cells were fixed for 10 min with Cytofix/Cytoperm (BD BIOSCIENCES®) at 4° C.
(§4) IMiDs promote Ikaros and Aiolos transcription factors binding to the E3 ubiquitin ligase cereblon (CRBN) leading to Ikaros and Aiolos ubiquitination and proteasomal degradation. Ikaros and Aiolos degradation are associated with a downregulation of Interferon regulatory factor 4 (IRF4) and MYC playing an essential role in MMC survival.

[4] = system: primary MMCs; experiment: Sensitivity of patients' primary MMCs to EPZ-6438, 8-day culture, viable MMC count by CD138 flow cytometry; settings: primary MMCs of 14 MM patients, one table row per patient; 1 μM EPZ-6438, 8 days, IL-6; in % (unit assumed)
Method: FIG. 3B: EZ score predicts for sensitivity of HMCLs and primary MMCs to EZH2 inhibitor. EZ score predicts for EPZ-6438 sensitivity of primary myeloma cells of patients. Mononuclear cells from tumor samples of 14 patients with MM were cultured for 8 days in the presence of IL-6 (2 ng/ml) with or without 1 μM EPZ-6438. At day 8 of culture, the count of viable MMCs was determined using CD138 staining by flow cytometry.
Bone marrow samples were collected after patients' written informed consent in accordance with the Declaration of Helsinki and institutional research board approval from Heidelberg and Montpellier University hospital. […] The structural chromosomal aberrations including t(4; 14)(p16.3; q32.3) and t(11; 14)(q13; q32.3), as well as numerical aberrations including 17p13 and 1q21 gain, were assayed by fluorescence in situ hybridization (iFISH). […] As iFISH data are not available for UAMS-TT2 patients, t(4; 14) translocation was evaluated using MMSET spike expression and del17p13 surrogated by TP53 probe set signal. […]
The inventors have determined that a set of 5 genes that are differentially expressed in a cohort of 14 MM individuals is associated with a prognostic value of their responsiveness to the EZH2 inhibitor EPZ-6438, as shown in Table 2 below. […]

[5] = system: LP1 and XG19 lenalidomide sensitive cell lines; experiment: Lenalidomide sensitivity of HMCLs after EPZ-6438 pretreatment, cell growth assay; settings: 4 days 1 uM EPZ-6438 prior to lenalidomide, P<0.05
Method: HMCLs were cultured for 15 days in RPMI 1640 medium, 10% FCS, and 2 ng/ml IL-6 (control medium) in the presence of EPZ-6438 ([…] ®). Cell concentration and viability were assessed using trypan blue dye exclusion test. The number of metabolic-active was also determined using intracellular ATP quantitation.

[6] = system: IRF4; experiment: IRF4 protein level in HMCLs by flow cytometry; settings: 1 μM EPZ-6438 4 days, then 2 days with or without 2 μM lenalidomide
Method: as §1, §2, §3, §4

[7] = system: MYC; experiment: MYC protein level in HMCLs by flow cytometry; settings: 1 μM EPZ-6438 4 days, then 2 days with or without 2 μM lenalidomide
Method: as §1, §2, §3, §4

SMILES: Nc1ncn([C@H]2C[C@H](O)[C@@H](CO)O2)c(=O)n1 [Decitabine]
- IC10 [1]: 100 nM

SMILES: CCN(c1cc(-c2ccc(CN3CCOCC3)cc2)cc(C(=O)NCc2c(C)cc(C)[nH]c2=O)c1C)C1CCOCC1 [EPZ-6438, EPZ-6438 (Tazemetostat)]
- median higher EPZ-6438 sensitivity, 5 HMCLs with highest EZ score compared to 5 HMCLs with low EZ-score [2]: 20 fold
- IKZF1 protein level inhibition [3]: 45.2%
- Response [4]: 64.15 and 46.39 and 53.41 and 61.33 and 72.61 and 112.5 and 84.96 and 118 and 79.27 and 77.76 and 101.43 and 73.09 and 66.53 and 72.01
- sensitization of myeloma cell lines to lenalidomide treatment [5]: significantly sensitize
- IRF4 protein level inhibition [6]: 38.7%
- MYC protein level inhibition [7]: 6.2%

SMILES: Nc1cccc2c1CN(C1CCC(=O)NC1=O)C2=O (stereo not drawn) [lenalidomide]
- IRF4 protein level inhibition [6]: 43%
- MYC protein level inhibition [7]: 2.2%
